Article PMC3145970, “Specific CLK Inhibitors from a Novel Chemotype for Regulation of Alternative Splicing” (Chemistry & Biology, 2011)
Where two headings read alike, the source gives them in different places.

Experiments:
Assay in all cases: Thermal stability shift assay
Format in all cases: binding
BMX = target: T1, BMX (Homo sapiens, UniProt P51813); details: read-out: Tm shift BMX
T1 sequence (P51813 1-675): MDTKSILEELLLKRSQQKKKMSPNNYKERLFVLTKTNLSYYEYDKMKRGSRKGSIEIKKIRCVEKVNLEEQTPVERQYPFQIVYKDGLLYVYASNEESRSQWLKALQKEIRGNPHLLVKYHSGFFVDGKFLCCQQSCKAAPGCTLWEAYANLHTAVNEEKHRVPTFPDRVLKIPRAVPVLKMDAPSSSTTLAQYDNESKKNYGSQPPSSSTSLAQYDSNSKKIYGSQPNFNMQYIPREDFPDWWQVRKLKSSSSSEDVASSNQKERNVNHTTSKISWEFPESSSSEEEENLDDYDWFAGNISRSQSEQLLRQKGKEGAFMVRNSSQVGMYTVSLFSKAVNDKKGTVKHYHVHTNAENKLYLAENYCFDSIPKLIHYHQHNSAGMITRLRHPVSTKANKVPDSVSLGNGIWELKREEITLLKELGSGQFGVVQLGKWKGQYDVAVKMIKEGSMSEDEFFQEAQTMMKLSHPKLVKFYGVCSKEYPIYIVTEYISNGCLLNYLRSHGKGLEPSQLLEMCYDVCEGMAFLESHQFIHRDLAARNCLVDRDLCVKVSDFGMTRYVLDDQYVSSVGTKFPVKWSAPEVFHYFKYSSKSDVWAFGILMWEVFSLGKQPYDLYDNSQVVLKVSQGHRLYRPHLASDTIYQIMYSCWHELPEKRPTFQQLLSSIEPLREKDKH
Summary of the method: (§1)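 2 μM protein + 10 μM inhibitor; 10 mM HEPES pH 7.5, 500 mM NaCl, SyproOrange 1:1000; melt in qPCR cycler, dye fluorescence monitored.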

SgK085 = target: T2, SgK085 (Homo sapiens, UniProt Q86YV6); details: read-out: Tm shift SgK085
T2 sequence (Q86YV6 1-388): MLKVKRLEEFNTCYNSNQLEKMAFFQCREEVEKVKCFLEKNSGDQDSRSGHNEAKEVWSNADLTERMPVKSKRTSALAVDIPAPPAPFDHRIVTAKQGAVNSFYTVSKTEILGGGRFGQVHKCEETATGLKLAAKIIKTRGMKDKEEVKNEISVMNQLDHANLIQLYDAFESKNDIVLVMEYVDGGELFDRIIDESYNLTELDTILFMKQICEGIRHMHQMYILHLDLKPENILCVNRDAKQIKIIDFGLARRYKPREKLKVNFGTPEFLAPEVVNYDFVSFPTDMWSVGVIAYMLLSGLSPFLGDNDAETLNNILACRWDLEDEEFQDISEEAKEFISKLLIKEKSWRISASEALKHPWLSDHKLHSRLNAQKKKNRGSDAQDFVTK
Summary of the method: as §1

LYN = target: T3, LYN (Homo sapiens, UniProt P07948); details: read-out: Tm shift LYN
T3 construct: purchased in-house (SGC Oxford thermal shift panel)
Summary of the method: as §1

MST3 = target: T4, MST3 (Homo sapiens, UniProt Q9Y6E0); details: read-out: Tm shift MST3
T4 construct: purchased in-house (SGC Oxford thermal shift panel)
Summary of the method: as §1

MST2 = target: T5, MST2 (Homo sapiens, UniProt Q13188); details: read-out: Tm shift MST2
T5 construct: purchased in-house (SGC Oxford thermal shift panel)
T5 sequence (Q13188 1-491): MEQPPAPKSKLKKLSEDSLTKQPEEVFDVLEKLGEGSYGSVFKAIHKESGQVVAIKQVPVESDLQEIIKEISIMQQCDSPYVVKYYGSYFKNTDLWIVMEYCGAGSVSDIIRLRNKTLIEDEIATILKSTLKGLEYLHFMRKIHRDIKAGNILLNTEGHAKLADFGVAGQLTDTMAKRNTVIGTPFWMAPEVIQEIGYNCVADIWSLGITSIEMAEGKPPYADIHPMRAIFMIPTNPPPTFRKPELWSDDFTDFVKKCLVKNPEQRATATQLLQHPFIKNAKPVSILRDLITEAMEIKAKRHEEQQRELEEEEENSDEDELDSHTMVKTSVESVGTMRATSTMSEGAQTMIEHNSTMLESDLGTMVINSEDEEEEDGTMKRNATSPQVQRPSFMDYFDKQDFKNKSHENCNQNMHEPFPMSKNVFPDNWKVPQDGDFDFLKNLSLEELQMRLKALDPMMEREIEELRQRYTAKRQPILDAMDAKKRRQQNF
Summary of the method: as §1

MST4 = target: T6, MST4 (Homo sapiens, UniProt Q9P289); details: read-out: Tm shift MST4
T6 construct: purchased in-house (SGC Oxford thermal shift panel)
Summary of the method: as §1

ALK4 = target: T7, ALK4 (Homo sapiens, UniProt P36896); details: read-out: Tm shift ALK4
T7 sequence (P36896 24-505): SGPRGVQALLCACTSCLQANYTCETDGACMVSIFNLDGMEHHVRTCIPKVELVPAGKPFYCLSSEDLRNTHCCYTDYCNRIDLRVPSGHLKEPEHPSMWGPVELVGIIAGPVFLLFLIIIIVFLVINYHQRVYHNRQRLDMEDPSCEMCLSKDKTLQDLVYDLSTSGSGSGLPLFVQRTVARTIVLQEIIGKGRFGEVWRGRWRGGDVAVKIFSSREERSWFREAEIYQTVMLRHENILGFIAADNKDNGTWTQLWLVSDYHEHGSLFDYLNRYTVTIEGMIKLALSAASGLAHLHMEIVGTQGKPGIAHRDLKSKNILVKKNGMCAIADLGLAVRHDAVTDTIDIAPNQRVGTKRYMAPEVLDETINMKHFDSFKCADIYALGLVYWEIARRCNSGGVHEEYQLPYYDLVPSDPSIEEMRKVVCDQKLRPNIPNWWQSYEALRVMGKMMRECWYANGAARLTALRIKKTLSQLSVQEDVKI
Summary of the method: as §1

PBK = target: T8, PBK (Homo sapiens, UniProt Q96KB5); details: read-out: Tm shift PBK
T8 construct: purchased in-house (SGC Oxford thermal shift panel)
T8 sequence (Q96KB5 1-322): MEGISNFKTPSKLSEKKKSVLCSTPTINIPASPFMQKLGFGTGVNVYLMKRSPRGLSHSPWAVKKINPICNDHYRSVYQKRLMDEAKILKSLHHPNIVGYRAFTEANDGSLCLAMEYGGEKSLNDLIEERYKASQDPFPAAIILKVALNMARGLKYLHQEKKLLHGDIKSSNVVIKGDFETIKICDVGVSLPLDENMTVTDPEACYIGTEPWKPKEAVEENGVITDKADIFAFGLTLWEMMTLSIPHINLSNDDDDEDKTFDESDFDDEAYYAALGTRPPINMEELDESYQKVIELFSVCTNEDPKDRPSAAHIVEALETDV
Summary of the method: as §1

T4 sequence (Q9Y6E0 whole entry): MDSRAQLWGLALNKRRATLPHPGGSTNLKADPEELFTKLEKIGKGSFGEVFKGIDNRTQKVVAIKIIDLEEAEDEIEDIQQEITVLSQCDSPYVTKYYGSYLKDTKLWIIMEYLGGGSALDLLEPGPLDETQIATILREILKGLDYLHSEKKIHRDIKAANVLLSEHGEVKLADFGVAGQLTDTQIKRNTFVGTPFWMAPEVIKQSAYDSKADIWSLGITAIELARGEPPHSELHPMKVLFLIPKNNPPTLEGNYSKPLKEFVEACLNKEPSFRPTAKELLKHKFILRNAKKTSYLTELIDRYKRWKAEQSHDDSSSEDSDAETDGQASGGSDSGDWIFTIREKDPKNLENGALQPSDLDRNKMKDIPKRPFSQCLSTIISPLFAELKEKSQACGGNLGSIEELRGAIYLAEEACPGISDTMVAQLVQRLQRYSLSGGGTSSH
T3 sequence (P07948 whole entry): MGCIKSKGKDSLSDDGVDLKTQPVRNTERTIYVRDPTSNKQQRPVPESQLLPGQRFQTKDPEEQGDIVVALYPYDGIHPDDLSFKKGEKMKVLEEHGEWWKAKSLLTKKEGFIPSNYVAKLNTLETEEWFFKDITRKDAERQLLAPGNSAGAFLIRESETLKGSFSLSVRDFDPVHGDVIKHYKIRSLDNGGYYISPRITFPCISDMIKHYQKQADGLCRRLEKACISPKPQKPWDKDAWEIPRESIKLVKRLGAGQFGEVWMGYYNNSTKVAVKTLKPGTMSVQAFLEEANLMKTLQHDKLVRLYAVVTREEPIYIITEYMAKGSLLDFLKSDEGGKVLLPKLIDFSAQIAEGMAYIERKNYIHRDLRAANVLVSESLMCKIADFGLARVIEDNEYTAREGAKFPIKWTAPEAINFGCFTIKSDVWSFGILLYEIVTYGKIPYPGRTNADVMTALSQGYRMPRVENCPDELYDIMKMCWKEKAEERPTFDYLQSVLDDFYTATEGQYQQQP
T6 sequence (Q9P289 whole entry): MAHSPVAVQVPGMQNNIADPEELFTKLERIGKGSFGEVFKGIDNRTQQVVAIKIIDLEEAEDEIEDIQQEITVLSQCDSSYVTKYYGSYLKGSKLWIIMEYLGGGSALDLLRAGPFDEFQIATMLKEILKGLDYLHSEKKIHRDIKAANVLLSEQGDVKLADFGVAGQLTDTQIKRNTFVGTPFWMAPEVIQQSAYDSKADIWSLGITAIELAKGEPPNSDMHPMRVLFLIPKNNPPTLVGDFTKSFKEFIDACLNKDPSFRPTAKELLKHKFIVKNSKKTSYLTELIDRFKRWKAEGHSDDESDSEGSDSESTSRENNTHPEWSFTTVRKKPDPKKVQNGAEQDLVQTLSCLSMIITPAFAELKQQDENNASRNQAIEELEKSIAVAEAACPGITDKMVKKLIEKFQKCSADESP

CCOC(=O)c1c(C(C#N)=CN(C)C)c2ccc(Cl)c(Cl)c2n1C (mixture of isomers) [compound 2, (E/Z)-Ethyl 6,7-Dichloro-3-[1-Cyano-2-(Dimethylamino)Vinyl]-1-Methyl-1H-Indole-2-Carboxylate]
ΔTm at 10 µM (BMX; inhibitor 10 μM): -0.2 °C | ΔTm at 10 µM (SgK085; inhibitor 10 μM): 0.4 °C | ΔTm at 10 µM (LYN; inhibitor 10 μM): 0 °C | ΔTm at 10 µM (MST3; inhibitor 10 μM): -1.1 °C | ΔTm at 10 µM (MST2; inhibitor 10 μM): 0.3 °C | ΔTm at 10 µM (MST4; inhibitor 10 μM): -0.6 °C | ΔTm at 10 µM (ALK4; inhibitor 10 μM): 4 °C | ΔTm at 10 µM (PBK; inhibitor 10 μM): -0.9 °C

NC1=NC(=O)/C(=C2\CCNC(=O)c3[nH]c(Br)cc32)N1 [Hymenialdisine, hymenialdisine, reference compound]
ΔTm at 10 µM (BMX; inhibitor 10 μM): -0.1 °C | ΔTm at 10 µM (SgK085; inhibitor 10 μM): 2.7 °C | ΔTm at 10 µM (LYN; inhibitor 10 μM): 0.3 °C | ΔTm at 10 µM (MST3; inhibitor 10 μM): 1 °C | ΔTm at 10 µM (MST2; inhibitor 10 μM): 3.9 °C | ΔTm at 10 µM (MST4; inhibitor 10 μM): 4.6 °C | ΔTm at 10 µM (ALK4; inhibitor 10 μM): 4.9 °C | ΔTm at 10 µM (PBK; inhibitor 10 μM): -0.4 °C

CCOC(=O)c1c(C(C#N)=CN)c2ccc(Cl)c(Cl)c2n1C (mixture of isomers) [KH-CB20, (E/Z)-Ethyl 3-(2-Amino-1-Cyanovinyl)-6,7-Dichloro-1-Methyl-1H-Indole-2-Carboxylate]
ΔTm at 10 µM (BMX): 0.2 °C | ΔTm at 10 µM (SgK085): 4.5 °C | ΔTm at 10 µM (LYN): 0 °C | ΔTm at 10 µM (MST3): -0.1 °C | ΔTm at 10 µM (MST2): 0.4 °C | ΔTm at 10 µM (MST4): 0.1 °C | ΔTm at 10 µM (ALK4): 1.4 °C | ΔTm at 10 µM (PBK): -0.1 °C

CCOC(=O)c1c(/C(C#N)=C\N)c2ccc(Cl)c(Cl)c2n1C [KH-CB19, (E)-Ethyl 3-(2-Amino-1-Cyanovinyl)-6,7-Dichloro-1-Methyl-1H-Indole-2-Carboxylate]
ΔTm at 10 µM (BMX): 0.2 °C | ΔTm at 10 µM (SgK085): 4.1 °C | ΔTm at 10 µM (LYN): 0.2 °C | ΔTm at 10 µM (MST3): 0.2 °C | ΔTm at 10 µM (MST2): 0.2 °C | ΔTm at 10 µM (MST4): 2.4 °C | ΔTm at 10 µM (ALK4): 1.2 °C | ΔTm at 10 µM (PBK): -0.3 °C

Cn1c2c(Cl)c(Cl)ccc2c2c(C#N)c[nH]c(=O)c21 [compound 3, 7,8-Dichloro-9-Methyl-1-Oxo-2,9-Dihydro-1H-Pyrido[3,4-b]Indole-4-Carbonitrile]
ΔTm at 10 µM (BMX; inhibitor 10 μM): -0.1 °C | ΔTm at 10 µM (SgK085; inhibitor 10 μM): 2.9 °C | ΔTm at 10 µM (LYN; inhibitor 10 μM): 0.2 °C | ΔTm at 10 µM (MST3; inhibitor 10 μM): 0.1 °C | ΔTm at 10 µM (MST2; inhibitor 10 μM): -0.5 °C | ΔTm at 10 µM (MST4; inhibitor 10 μM): 0.4 °C | ΔTm at 10 µM (ALK4; inhibitor 10 μM): 0.9 °C | ΔTm at 10 µM (PBK; inhibitor 10 μM): -0.4 °C
